From ChEMBL document CHEMBL5385906, “Discovery of a Potent, Selective, and Orally Bioavailable Tool Compound for Probing the Role of Lysophosphatidic Acid Type 2 Receptor Antagonists in Fibrotic Disorders” (J Med Chem, 2023)
One block for each compound: values may come before it.

What was measured:
[1] = target: Lysophosphatidic acid receptor 2 (Homo sapiens, UniProt Q9HBW0)
Description: Antagonist activity at human LPA2 receptor expressed in CHO cells assessed as inhibition of LPA-induced calcium mobilization pretreated for 15 mins followed by LPA stimulation by FLIPR analysis

[2] = target: Lysophosphatidic acid receptor 1 (Homo sapiens, UniProt Q92633)
Description: Antagonist activity at human LPA1 receptor expressed in CHO cells assessed as inhibition of LPA-induced calcium mobilization pretreated for 15 mins followed by LPA stimulation by FLIPR analysis

in vitro [3] = conditions: C57BL/6J, mouse, liver microsomes
Description: Intrinsic clearance in C57BL/6J mouse liver microsomes at 0.5 uM in presence of NADPH regenerating system measured for 45 mins per mg protein by LC-MS/MS analysis

in vitro [4] = conditions: human, liver microsomes, CLH
Description: Intrinsic clearance in human liver microsomes at 0.5 uM in presence of NADPH regenerating system measured for 45 mins per mg protein by LC-MS/MS analysis

[5] = target: Lysophosphatidic acid receptor 2 (Mus musculus, UniProt Q9JL06); test: Antagonist activity at mouse LPA2 receptor expressed in HeLa cells assessed as inhibition of LPA-induced calcium mobilization pretreated for 15 mins followed by LPA stimulation by FLIPR analysis; assay type: functional, cell-based; conditions: read-out: pIC50 (converted)
Lysophosphatidic acid receptor 2 (Mus musculus, UniProt Q9JL06), sequence (Q9JL06 whole entry): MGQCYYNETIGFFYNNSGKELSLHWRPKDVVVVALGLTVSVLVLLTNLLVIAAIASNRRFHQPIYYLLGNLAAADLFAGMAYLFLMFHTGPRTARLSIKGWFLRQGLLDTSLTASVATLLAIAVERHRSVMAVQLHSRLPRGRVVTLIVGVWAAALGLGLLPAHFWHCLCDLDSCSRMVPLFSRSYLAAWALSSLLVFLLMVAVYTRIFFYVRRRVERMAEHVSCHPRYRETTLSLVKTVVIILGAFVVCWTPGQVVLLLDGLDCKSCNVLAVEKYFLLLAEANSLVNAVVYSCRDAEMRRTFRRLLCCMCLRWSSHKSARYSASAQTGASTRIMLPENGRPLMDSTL

[6] = Efflux ratio of apparent permeability across apical to basolateral to basolateral to apical side in human Caco-2 cells at 10 uM measured after 60 mins by LC-MS/MS analysis
[7] = Protein binding in mouse lungs assessed as fraction unbound at 5 uM measured after 5 hrs by LC-MS/MS analysis
in vivo [8] = conditions: C57BL/6J, mouse, po, 30 mg/kg
[9] = Protein binding in mouse plasma assessed as fraction unbound at 0.5 uM measured after 5 hrs by LC-MS/MS analysis
[10] = Oral absorption in C57BL/6J mouse at 30 mg/kg by LC-MS/MS analysis; conditions: in vivo
in vivo [11] = conditions: C57BL/6J, mouse, plasma, po, 30 mg/kg
in vivo [12] = conditions: C57BL/6J, mouse, lung, po, 30 mg/kg
[13] = Apparent permeability across apical to basolateral side in human Caco-2 cells at 10 uM measured after 60 mins by LC-MS/MS analysis
in vivo [14] = conditions: C57BL/6J, mouse, plasma, po, 30 mg/kg; remark: listed apart in the source
[15] = Apparent permeability across basolateral to apical side in human Caco-2 cells at 10 uM measured after 60 mins by LC-MS/MS analysis
[16] = Half life in C57BL/6J mouse at 30 mg/kg, po and 2 mg/kg, iv by LC-MS/MS analysis; conditions: in vivo
in vivo [17] = conditions: C57BL/6J, mouse, lung, po, 30 mg/kg; remark: listed apart in the source
[18] = Protein binding in human plasma assessed as fraction unbound at 0.5 uM measured after 5 hrs by LC-MS/MS analysis

Lysophosphatidic acid receptor 1, sequence (Q92633 whole entry): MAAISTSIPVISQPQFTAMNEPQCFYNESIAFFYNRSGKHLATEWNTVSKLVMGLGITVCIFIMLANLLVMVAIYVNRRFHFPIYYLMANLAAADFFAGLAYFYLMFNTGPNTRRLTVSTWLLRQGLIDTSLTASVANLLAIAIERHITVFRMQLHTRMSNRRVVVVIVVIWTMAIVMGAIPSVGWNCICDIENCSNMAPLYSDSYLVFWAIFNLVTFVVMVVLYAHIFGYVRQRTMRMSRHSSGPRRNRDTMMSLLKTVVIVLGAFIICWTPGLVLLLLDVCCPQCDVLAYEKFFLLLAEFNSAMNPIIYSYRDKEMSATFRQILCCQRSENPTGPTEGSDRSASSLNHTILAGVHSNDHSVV
Lysophosphatidic acid receptor 2 (Homo sapiens, UniProt Q9HBW0), sequence (Q9HBW0 whole entry): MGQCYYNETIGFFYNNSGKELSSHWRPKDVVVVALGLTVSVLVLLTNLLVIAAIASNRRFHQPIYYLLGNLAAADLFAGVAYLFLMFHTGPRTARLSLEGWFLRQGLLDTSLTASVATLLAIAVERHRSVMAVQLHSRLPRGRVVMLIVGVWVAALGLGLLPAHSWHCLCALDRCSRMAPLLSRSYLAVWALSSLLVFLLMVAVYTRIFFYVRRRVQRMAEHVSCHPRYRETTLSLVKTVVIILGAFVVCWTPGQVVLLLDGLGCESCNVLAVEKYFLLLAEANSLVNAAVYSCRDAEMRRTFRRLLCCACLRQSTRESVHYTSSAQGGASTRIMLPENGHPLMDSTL

- IC50 [1]: 0.0447 µM
Compound: COC(=O)Nc1nc(C)c(S(=O)(=O)N2CCN(C[C@H](C)Nc3ncnc4c(C(F)(F)F)cccc34)CC2)s1

- IC50 [1]: 0.00575 µM
Compound: Cc1noc(-c2ccc(S(=O)(=O)N3CCN(C[C@H](C)Nc4ncnc5c(C(F)(F)F)cccc45)CC3)s2)c1C

- IC50 [1]: 4.07 µM
Compound: CC(=O)Nc1ccc(S(=O)(=O)N2CCN(C[C@H](C)Nc3ncnc4c(C)csc34)CC2)cc1Cl

- IC50 [1]: 17 µM
Compound: Cc1csc2c(N[C@@H](C)CNC3CCN(S(=O)(=O)c4ccc(Cl)c(Cl)c4)CC3)ncnc12

- IC50 [1]: > 50.1 µM
Compound: Cc1csc2c(NC(C)CN3CCN(S(=O)(=O)c4ccc(Cl)c(Cl)c4)CC3)cccc12 (racemic)

- IC50 [2]: 12.6 µM
- microsomal CLint at 0.75 h, 0.5 µM (in vitro [3]): 698 µL/min/mg
- microsomal CLint at 0.75 h, 0.5 µM (in vitro [4]): 789 µL/min/mg
- IC50 [1]: 4.17 µM
Compound: Cc1cccc2c(NC(C)CN3CCN(S(=O)(=O)c4ccc(Cl)c(Cl)c4)CC3)ncnc12 (stereo in doubt; 42b)

- IC50 [2]: 10.5 µM
- IC50 [1]: 13.5 µM
Compound: Cc1cc2ncnc(NC(C)CN3CCN(S(=O)(=O)c4ccc(Cl)c(Cl)c4)CC3)c2s1 (racemic)

- IC50 [1]: 8.13 µM
Compound: C[C@@H](CN1CCN(S(=O)(=O)c2ccc(Cl)c(Cl)c2)CC1)Nc1ncnc2ccn(C)c12

- IC50 [5]: 3.98 µM
Compound: COC(=O)Nc1nc(C)c(S(=O)(=O)N2CCN(C[C@H](C)Nc3ncnc4c(C(=O)N(C)C)cccc34)CC2)s1

- IC50 [1]: 6.61 µM
Compound: Cc1csc2c(N[C@@H](C)CN3CCC(NS(=O)(=O)c4ccc(Cl)c(Cl)c4)CC3)ncnc12

- efflux ratio at 1 h, 10 µM [6]: 2.7
- fraction unbound at 5 h, 5 µM [7]: 0.0531
- bioavailability (in vivo [8]): 67%
- fraction unbound at 5 h, 0.5 µM [9]: 0.0616
- IC50 [2]: > 50.1 µM
- Fa [10]: 76%
- microsomal CLint at 0.75 h, 0.5 µM (in vitro [3]): 13 µL/min/mg
- AUC(0-t) (in vivo [11]): 163000 ng·h/mL
- Cmax (in vivo [12]): 8450 ng/mL
- Papp A→B at 1 h, 10 µM [13]: 4.17 ×10⁻⁶ cm/s
- microsomal CLint at 0.75 h, 0.5 µM (in vitro [4]): 21 µL/min/mg
- IC50 [1]: 0.000447 µM
- IC50 [5]: 0.00646 µM
- Cmax (in vivo [14]): 81200 ng/mL
- Papp B→A at 1 h, 10 µM [15]: 11.2 ×10⁻⁶ cm/s
- half-life [16]: 1.74 h
- AUC(0-t) (in vivo [17]): 24300 ng·h/mL
Compound: COC(=O)Nc1nc(C)c(S(=O)(=O)N2CCN(C[C@H](C)Nc3ncnc4c(-c5cccnc5C)cccc34)CC2)s1

- IC50 [1]: 11.2 µM
Compound: Cc1csc2c(N[C@@H](C)CN3CCN(S(=O)(=O)c4ccccc4)CC3)ncnc12

- IC50 [2]: > 50.1 µM
- IC50 [1]: 13.8 µM
Compound: CC(=O)Nc1ccc(S(=O)(=O)N2CCN(C[C@H](C)Nc3ncnc4c(C)csc34)CC2)cn1

- IC50 [1]: 0.562 µM
Compound: Cc1csc2c(N[C@@H](C)CN3CCN(S(=O)(=O)c4ccc(F)c(Cl)c4)CC3)ncnc12

- IC50 [1]: 30.2 µM
Compound: Cc1csc2c(N3CCC[C@H]3CN3CCN(S(=O)(=O)c4ccc(Cl)c(Cl)c4)CC3)ncnc12

- IC50 [1]: 8.32 µM
Compound: Cc1csc2c(NC3(CN4CCN(S(=O)(=O)c5ccc(Cl)c(Cl)c5)CC4)CC3)ncnc12

- IC50 [1]: 6.17 µM
Compound: Cc1csc2c(NCC(C)N3CCN(S(=O)(=O)c4ccc(Cl)c(Cl)c4)CC3)ncnc12 (stereo in doubt; 6b)

- IC50 [1]: 6.17 µM
Compound: CC[C@@H](CN1CCN(S(=O)(=O)c2ccc(Cl)c(Cl)c2)CC1)Nc1ncnc2c(C)csc12

- IC50 [2]: > 50.1 µM
- microsomal CLint at 0.75 h, 0.5 µM (in vitro [3]): 270 µL/min/mg
- microsomal CLint at 0.75 h, 0.5 µM (in vitro [4]): 228 µL/min/mg
- IC50 [1]: 3.47 µM
Compound: CC(CN1CCN(S(=O)(=O)c2ccc(Cl)c(Cl)c2)CC1)Nc1ncnc2c(-c3ccccc3)csc12 (racemic)

- efflux ratio at 1 h, 10 µM [6]: 60
- fraction unbound at 5 h, 5 µM [7]: 0.0177
- bioavailability (in vivo [8]): 16%
- fraction unbound at 5 h, 0.5 µM [9]: 0.0124
- fraction unbound at 5 h, 0.5 µM [18]: 0.0003
- IC50 [2]: > 50.1 µM
- Fa [10]: 17%
- microsomal CLint at 0.75 h, 0.5 µM (in vitro [3]): 108 µL/min/mg
- AUC(0-t) (in vivo [11]): 34200 ng·h/mL
- Cmax (in vivo [12]): 7030 ng/mL
- Papp A→B at 1 h, 10 µM [13]: 0.18 ×10⁻⁶ cm/s
- microsomal CLint at 0.75 h, 0.5 µM (in vitro [4]): 38 µL/min/mg
- IC50 [1]: 0.000331 µM
- IC50 [5]: 0.00479 µM
- Cmax (in vivo [14]): 12100 ng/mL
- Papp B→A at 1 h, 10 µM [15]: 10.6 ×10⁻⁶ cm/s
- half-life [16]: 2.6 h
- AUC(0-t) (in vivo [17]): 43200 ng·h/mL
Compound: COC(=O)Nc1nc(C)c(S(=O)(=O)N2CCN(C[C@H](C)Nc3ncnc4c(-c5cccc(CN(C)C)c5)cccc34)CC2)s1

- IC50 [2]: > 50.1 µM
Compound: Cc1csc2c(N[C@@H](C)C(=O)N3CCN(S(=O)(=O)c4ccc(Cl)c(Cl)c4)CC3)ncnc12

- efflux ratio at 1 h, 10 µM [6]: 98.1
- fraction unbound at 5 h, 5 µM [7]: 0.0187
- bioavailability (in vivo [8]): 7%
- fraction unbound at 5 h, 0.5 µM [9]: 0.0059
- fraction unbound at 5 h, 0.5 µM [18]: < 0.01
- IC50 [2]: > 50.1 µM
- Fa [10]: 9%
- microsomal CLint at 0.75 h, 0.5 µM (in vitro [3]): 133 µL/min/mg
- AUC(0-t) (in vivo [11]): 12900 ng·h/mL
- Cmax (in vivo [12]): 2680 ng/mL
- Papp A→B at 1 h, 10 µM [13]: 0.09 ×10⁻⁶ cm/s
- microsomal CLint at 0.75 h, 0.5 µM (in vitro [4]): 104 µL/min/mg
- IC50 [1]: 0.000282 µM
- IC50 [5]: 0.00457 µM
- Cmax (in vivo [14]): 4230 ng/mL
- Papp B→A at 1 h, 10 µM [15]: 8.95 ×10⁻⁶ cm/s
- half-life [16]: 2.45 h
- AUC(0-t) (in vivo [17]): 19500 ng·h/mL
Compound: COC(=O)Nc1nc(C)c(S(=O)(=O)N2CCN(C[C@H](C)Nc3ncnc4c(-c5cccc(CN6CCCC6)c5)cccc34)CC2)s1
